# Patent US20230149383A1, “QUINOLINE COMPOUNDS FOR TREATING LUNG, LIVER, AND KIDNEY DISEASES, DISORDERS, OR CONDITIONS” (Aldeyra Therapeutics, Inc., priority 2020, published 2023)
# Where two headings read alike, the source gives them in different places.
# Key:
# rat NAFLD model = assay: 12-week choline deficient high fat diet rat study (NAFLD model); assay type: in vivo; details: 11 Week Groups (Day 84)
# [1] = system: human precision cut liver slices (PCLS); assay: Alcoholic liver injury model in precision-cut liver slices (PCLS); assay type: cell-based
# Text: Alcohol abuse results in liver injury, including accumulation of RASP and an increase in inflammation. It is known to cause abnormalities in liver structure and function, including fatty liver, apoptosis, necrosis, fibrosis, and cirrhosis. In order to investigate the utility of the quinoline compounds described herein for reduction of RASP and/or treating liver and associated inflammatory disorders, we employed a known in vitro culture model that employs precision-cut liver slices (PCLS) to measure alcohol-induced liver injury. For this experiment, we used a liver sample donated from a […] with fibrosis. This experiment may also be performed on rat PCLS (procedure provided below). The model is described, for example in Klassen, L. W. et al., Biochemical Pharmacology 76 (2008), 426-436. In this model, PCLS retains excellent viability as determined by lactate dehydrogenase and adenosine triphosphate (ATP) levels over a 96-h period of incubation. The major enzymes of ethanol detoxification (alcohol dehydrogenase, aldehyde dehydrogenase, and cytochrome P4502E1), remain active and PCLS readily metabolizes ethanol and produces acetaldehyde. […] These PCLS secrete albumin, and albumin secretion was decreased by ethanol treatment. All of these impairments are reversed following the addition of 4-methylpyrazole, which is an inhibitor of ethanol metabolism. Therefore, this model system appears to mimic the ethanol-induced changes in the liver that have been previously reported in human and animal studies, and appears to be a useful model for the study of alcoholic liver disease.
# Materials and Methods. For human PCLS studies, slices were cut as described below and incubated with conditions below for 24, 48, or 72 hours. Media were changed daily. • Control Media • 25 mM Ethanol Media. • Control Media+10 μM compound I-1 (7 μl of the 5 mg/ml I-1 solution in 1.7 ml) • Ethanol Media+10 μM compound I-1
# Incubation of slices with ethanol is performed as follows. Following pre-incubation with WE, slices are incubated with media only (control), media+25 mM ethanol (ethanol), media+25 mM ethanol+0.50 mM 4-methylpyrazole as an optional positive control (ethanol +4-MP), media+0.50 mM 4-methylpyrazole (control+4-MP), control media+test compound, or ethanol media+test compound. The addition of 4-MP may be used in these studies as it is a general inhibitor of ethanol metabolism. The slices are placed in the Dynamic Organ Culture incubator and cultured at 37 C for up to 96 h, and every 24 h the appropriate media is replenished. In order to determine the concentration of ethanol and acetaldehyde in the media, the supernatant is analyzed using headspace gas chromatography.
# Viability assays are performed as follows. Slice viability is determined by measuring adenosine triphosphate (ATP) and lactate dehydrogenase (LDH) levels. For the ATP assay, slices are harvested at the appropriate times, placed into 70% ethanol/2 mM EDTA, flash frozen, and stored at −70 C until assayed. Samples are thawed on ice, sonicated, and diluted in 0.1 M Tris-HCl/2 mM EDTA prior to use in a standard ATP assay kit.
# For LDH determination, supernatant is collected and frozen at −70 C. The slice is solubilized in WE containing 2% Triton X-100 and LDH determined using a cytotoxicity detection kit (LDH) (e.g., available from Roche Applied Science, Penzberg, Germany). The absorbance of the samples is measured at 490 nm. All protein concentrations from the slices are determined using a BCA protein assay kit. To calculate the % Cytotoxicity at subsequent 24 h time points, the LDH in the media is divided by the total LDH in the PCLS and multiplied by 100.
# Triglyceride analysis is performed as follows. At indicated time points, supernatant is removed and slices are washed in PBS (pH 7.4). Slices are placed in PBS containing 0.5% Triton-X100, sonicated, and the equivalent of […] of protein assayed for triglycerides using the serum triglyceride kit. […]
# [2] = First-in-human Phase 1 trial (SAD/MAD), safety; assay type: in vivo
# Experimental: The adverse event profile was favorable compared to placebo: A total of 6 (9.4%) subjects receiving the test compound had treatment emergent adverse events, compared to 4 (19.1%) subjects who received placebo. […] No changes in serum glucose were observed. […] There were no subjects who had QTcF >500 msec or a change of >60 msec from baseline. […] Three of these five subjects were in the SAD portion of the study (one each in the 100 mg, 200 mg, and 700 mg dose cohorts) and the remaining two subjects were in the MAD portion of the study (one each in the 150 mg BID and 300 mg BID dose cohorts).
# Clinical development of compound I-1 in inflammatory disease is supported by safety testing in human healthy volunteers in single and multiple ascending dose (10 day), placebo-controlled Phase I trials.
# Genotoxicity studies = assay: Genotoxicity studies
# Experimental: I-1 plasma concentrations are projected to have reached at least 10 μM, exceeding reported levels of RASP in humans with inflammatory diseases. The data support the potential of I-1, and RASP inhibition in general, in treating inflammation and fibrosis.
# [3] = Phase 1 trial, pharmacokinetics in healthy volunteers; assay type: in vivo, human; details: for Cmax / AUC / half-life: human, in vivo; for AUC: read-out: 0 to 12 hour area under the curve (AUCtau)
# Experimental: Healthy volunteers were dosed with 600 mg of compound I-1 BID for 10 days in the top (highest) dose cohort. […] The 0 to 12 hour area under the curve (AUCtau) was 5710 h*ng/mL (61.5% CV) on Day 1 and 6,800 h*ng/mL (37.9% CV) on Day 10.
compound,measurement,setting,value
CC(C)(O)c1nc2ccccc2cc1N [I-1],NAS scores,rat NAFLD model,lower
same,overall effect on cellular stress and toxicity in response to ethanol,[1],acts as a chemoprotectant to reduce cellular stress and toxicity
same,triglyceride levels,"[1]; 10 μM I-1 + 25 mM ethanol, 24, 48, 72 h",significantly decreased
same,acetaldehyde levels,"[1]; 10 μM I-1, 24, 48, 72 h",appear to be decreased
same,ATP levels,"[1]; 10 μM I-1, 24 and 48 hours",remain constant
same,ATP levels,"[1]; 10 μM I-1, 72 hours",increase
same,cytotoxicity (LDH) levels,[1]; ethanol treated + 10 μM I-1,continued to drop
same,overall safety and tolerability,"[2]; Phase 1 SAD and MAD (10 day), up to 600 mg BID",safe and tolerable
same,subjects with QTcF change of >30 msec from baseline,"[2]; SAD 100, 200, 700 mg, MAD 150 mg BID, 300 mg BID cohorts",Five
same,QTcF prolongation,[2]; in vivo,did not lead to QTcF prolongation
same,"changes in heart rate, blood pressure, respiratory rate, pulse oximetry, or temperature",[2]; in vivo,No clinically meaningful changes
same,"changes in hepatic or renal analytes (ALT, AST, ALP, amylase, GGT, bilirubin, creatinine kinase, creatinine)",[2]; in vivo,No clinically meaningful changes
same,changes in serum glucose,[2]; in vivo,No changes
same,hematological changes,[2]; in vivo,No clinically significant hematological changes
same,interruptions or discontinuations of study drug administration,[2]; in vivo,no interruptions or discontinuations
same,subjects with QTcF >500 msec or a change of >60 msec from baseline,[2]; in vivo,no subjects
same,subjects with treatment emergent adverse events,"[2]; subjects receiving the test compound, number (%)",6 (9.4%) subjects
same,potential for mutagenicity or clastogenicity,Genotoxicity studies,no potential for mutagenicity or clastogenicity
same,risk of genotoxicity,Genotoxicity studies; preclinical studies,low risk of genotoxicity
same,accumulation of the drug,[3]; across all cohorts,Little to no accumulation
same,correlation of Cmax and AUC with dose,[3]; as dose increased,linear correlation
same,increase in clearance,[3]; between Day 1 and Day 10,no significant increase in clearance
same,Cmax,"[3]; 600 mg, 600 mg BID, Day 1",1920 ng/mL
same,AUC,"[3]; 600 mg, 600 mg BID, Day 1",5710 ng·h/mL
same,half-life,"[3]; 600 mg, 600 mg BID, Day 1, read-out: half-life (converted)",3.98 h
same,Cmax,"[3]; 600 mg, 600 mg BID, Day 10",1460 ng/mL
same,AUC,"[3]; 600 mg, 600 mg BID, Day 10",6800 ng·h/mL
same,half-life,"[3]; 600 mg, 600 mg BID, Day 10, read-out: half-life (converted)",4.56 h
same,half-life,"[3]; multiple day exposures, across cohorts, read-out: half-life (t1/2), mean values",3.07 to 6.2 h
same,cyp autoinduction,[3]; over the course of 10 days,no cyp autoinduction was observed
